Assay: ETH 129 mediated cation transport into Quin-2 loaded POPC vesicles
Format: biochemical
Design: slope of log Ca2+ transport rate vs ΔΨ: unit not given here
Settings: for SlopeETH 129: log rate vs log ETH 129; for SlopeMe: log rate vs log cation concentration, FIG. 8B
Method: Unilamellar vesicles loaded with Quin-2 were prepared from 1-palmitoyl-2-oleoyl-sn-glycerophosphatidylcholine (POPC) by freeze-thaw extrusion (Erdahl et al., 1994 Biophys. J. 66:1678; Erdahl et al., 1995 Biophys. J. 69:2350). The formation medium contained 5 mM Quin-2 (K+), 10 mM Hepes (K+), pH 7.00, and 100 mM KCl. A high internal K+ concentration was sought to allow the generation of membrane potentials of varying magnitude (see below). The preparations obtained were applied to Sephadex™ G-50 mini-columns (Pharmacia, Piscataway N.J.) and eluted by low speed centrifugation (Fry et al., 1978 Anal. Biochem. 90:809), to replace the external medium with a 10 mM Hepes buffer (Na+), pH 7.00 (Erdahl et al., 1994 Biophys. J. 66:1678; Erdahl et al., 1995 Biophys. J. 69:2350). The nominal concentration of POPC in final preparations was determined as lipid phosphorus (Bartlett, 1959 J Biol. Chem. 234:466) and was near 80 mM. The average diameter of these vesicles was 71 nm as determined by freeze-fracture electron microscopy (Chapman et al., 1990 Chem. Phys. Lipids 55:73). They contained entrapped K+ at approximately 125 mM, as determined by atomic absorption spectroscopy, and Quin-2 at approximately 6 mM. The latter value was determined by titrating lysed vesicles with a standard solution of CaCl2 and was about one third of the expected value (Erdahl et al., 1995 Bipohys. J. 69:3250). The high solute level in the formation medium reduced the efficiency of Quin-2 entrapment by reducing the effectiveness of a freeze-thaw driven solute concentrating mechanism that normally elevates the internal concentrations of solutes, relative to the external medium (Chapman et al., 1990 Chem. Phys. Lipids 55:73; Chapman et al., 1990 Chem. Phys. Lipids 60:201).
POPC vesicles containing Quin-2 were utilized at a nominal phospholipid concentration of 1.0 mM, and at 25° C. The external medium contained polyvalent cation salts as described below, 100 mM NaCl, or mixtures of NaCl and KCl totaling […], and 10 mM Hepes, pH 7.00, unless otherwise noted. The medium pH was adjusted with NaOH that had been passed over Chelex 100 columns to remove contaminating cations (Erdahl et al., 1994 Biophys. J. 66:1678). In most cases an inside negative membrane electrical potential was present during the experiments. This was generated by the presence of 0.5 μM valinomycin (Val), which transports K+ out of the vesicles electrogenically (Erdahl et al., 1994 Biophys. J. 66:1678). The magnitude of the potential was controlled by varying the concentration ratio of Na+ to K+ in the external medium. A TPP+electrode was used to measure the potential (Broekemeier et al, 1998 Biochem. 37:13059), and thereby to verify that the calculated values were obtained. For these purposes the incubation medium contained 2.0 μM TPP.Cl and the entrapped volume was taken to be 2.02 μl/ml at a nominal POPC concentration of 1.0 mM (Chapman et al., 1990 Chem. Phys. Lipids 55:73).
Val was omitted when an imposed membrane potential was not desired, or in some cases 5 μM of the protonophore carbonyl cyanide m-chlorophenylhydrazone (CCP) was present instead of Val.
The transport of polyvalent cations was monitored by difference absorbance measurements which detected formation of the Quin-2:cation complex within the vesicle lumen. An Aminco DW2a spectrophotometer operated in the dual wavelength mode was employed. In addition, an Oriel No. 59800 band pass filter was used between the cuvette and the beam scrambler-photomultiplier assembly to prevent detection of the fluorescent light emitted by Quin-2. The sample wavelength for all cations was 264 nm. The reference wavelengths were at an isosbestic point in the Quin-2/Quin-2:cation complex difference spectrum of interest. These wavelengths varied slightly from cation to cation, as previously described (Erdahl et al., 1996 Biochem. 35:13817). […]

[1] = 5.0 μM ETH 129, 30 μM CaCl2, Val, FIG. 3B

Q: With `O=C(COCC(=O)N(C1CCCCC1)C1CCCCC1)N(C1CCCCC1)C1CCCCC1` [ETH 129] as the molecule, how does the “slope of log rate vs. log Ca2+ concentration” value (5.0 μM ETH 129, 0.5 μM Val, FIG. 7B) read?
A: The value was 0.7.

Q: And the “Ca2+ transport rate at zero potential (extrapolated)” value [1]?
A: The value was 0.41 nM/s.

Q: And the “slope of log Ca2+ transport rate vs ΔΨ” value [1]?
A: Its value is 0.12.

Q: And the “Ca2+ transport rate when CCP was used to eliminate an opposing potential” value (5.0 μM ETH 129, 100 μM CaCl2, 5.0 μM CCP, FIG. 2C)?
A: The value was 0.88 nM/s.

Q: And the “Selectivity, Ca/Me” value (10^−2.0 M Cations, Me = Ca^2+)?
A: The value was “≡1.0”.

Q: And the “Selectivity, Ca/Me” value (10^−2.0 M Cations, Me = Co^2+)?
A: The value was 53.

Q: What about the “Selectivity, Ca/Me” value (10^−2.0 M Cations, Me = La^3+) of the same molecule?
A: The value was 5.1.

Q: What about the “Selectivity, Ca/Me” value (10^−2.0 M Cations, Me = Mn^2+) of the same molecule?
A: Its value is 59.

Q: What about the “Selectivity, Ca/Me” value (10^−2.0 M Cations, Me = Ni^2+) of the same molecule?
A: The value was 55.

Q: And the “Selectivity, Ca/Me” value (10^−2.0 M Cations, Me = Sr^2+)?
A: Its value is 2.8.

Q: What about the “Selectivity, Ca/Me” value (10^−2.0 M Cations, Me = Zn^2+) of the same molecule?
A: The value was 2.3.

Q: And the “Selectivity, Ca/Me” value (10^−3 5 M Cations, Me = Ca^2+)?
A: The value was “≡1.0”.

Q: And the “Selectivity, Ca/Me” value (10^−3 5 M Cations, Me = Co^2+)?
A: Its value is 9.9.

Q: What about the “Selectivity, Ca/Me” value (10^−3 5 M Cations, Me = La^3+) of the same molecule?
A: The value was 0.44.

Q: What about the “Selectivity, Ca/Me” value (10^−3 5 M Cations, Me = Mn^2+) of the same molecule?
A: Its value is 8.9.

Q: What about the “Selectivity, Ca/Me” value (10^−3 5 M Cations, Me = Ni^2+) of the same molecule?
A: Its value is 8.6.

Q: And the “Selectivity, Ca/Me” value (10^−3 5 M Cations, Me = Sr^2+)?
A: The value was 2.9.

Q: What about the “Selectivity, Ca/Me” value (10^−3 5 M Cations, Me = Zn^2+) of the same molecule?
A: Its value is 2.6.

Q: What about the “Selectivity, Ca/Me” value (10^−5.0 M Cations, Me = Ca^2+) of the same molecule?
A: Its value is “≡1.0”.

Q: And the “Selectivity, Ca/Me” value (10^−5.0 M Cations, Me = Co^2+)?
A: Its value is 1.6.

Q: What about the “Selectivity, Ca/Me” value (10^−5.0 M Cations, Me = La^3+) of the same molecule?
A: Its value is 0.14.

Q: And the “Selectivity, Ca/Me” value (10^−5.0 M Cations, Me = Mn^2+)?
A: The value was 1.1.

Q: And the “Selectivity, Ca/Me” value (10^−5.0 M Cations, Me = Ni^2+)?
A: Its value is 1.1.

Q: And the “Selectivity, Ca/Me” value (10^−5.0 M Cations, Me = Sr^2+)?
A: The value was 1.0.

Q: What about the “Selectivity, Ca/Me” value (10^−5.0 M Cations, Me = Zn^2+) of the same molecule?
A: Its value is 0.9.

Q: What about the “slope of log rate vs. log ionophore concentration” value (Ca2+ 30 μM, Val, FIG. 6B) of the same molecule?
A: The value was 2.8.

Q: What about the “selectivity sequence among the divalent cations” value (FIG. 8) of the same molecule?
A: The value was “Ca^2+>Zn^2+≈Sr^2+>Co2+≈Ni^2+≈Mn^2+”.

Q: What about the “acceleration of Ca2+ transport per 59 mV increase in ΔΨ” value (equivalent of the slope value, FIG. 3B) of the same molecule?
A: The value was 3.3 fold.

Q: What about the “SlopeETH 129” value (cation Ca^2+ 1.0 mM) of the same molecule?
A: Its value is 1.5.

Q: What about the “SlopeETH 129” value (cation Co^2+ 1.0 mM) of the same molecule?
A: The value was 0.55.

Q: What about the “SlopeETH 129” value (cation Mn^2+ 1.0 mM) of the same molecule?
A: The value was 0.85.

Q: And the “SlopeETH 129” value (cation Ni^2+ 1.0 mM)?
A: Its value is 0.78.

Q: What about the “SlopeETH 129” value (cation Sr^2+ 1.0 mM) of the same molecule?
A: Its value is 2.0.

Q: What about the SlopeMe (cation Ca^2+) of the same molecule?
A: Its SlopeMe is 0.65.

Q: What about the SlopeMe (cation Co^2+) of the same molecule?
A: Its SlopeMe is 0.11.

Q: And the SlopeMe (cation La^3+)?
A: The SlopeMe was “nonlin”.

Q: And the SlopeMe (cation Mn^2+)?
A: The SlopeMe was 0.04.

Q: And the SlopeMe (cation Ni^2+)?
A: The SlopeMe was 0.05.

Q: What about the SlopeMe (cation Sr^2+) of the same molecule?
A: The SlopeMe was 0.57.

Q: What about the SlopeMe (cation Zn^2+) of the same molecule?
A: The SlopeMe was 0.58.

Q: What about the “effect of ETH 129 alone on rate of Ca2+ permeation” value (no Val or CCP, FIG. 2A) of the same molecule?
A: The value was “only a modest effect”.
